Tests used:
Type in all cases: in vivo
[1] = system: cotton aphids (Aphis gossypii); test: Test method 1: diluted solution sprayed on cucumber seedlings infested with cotton aphids; settings: 500 ppm, spray 10 mL/seedling on cucumber, 5 days after spraying, 25° C.
Procedure: (§1) Next, Test Examples are used to show effects of the Present compounds on harmful arthropods. In the following Test Examples, the tests were carried out at 25° C.
(§2) Each test compound is formulated according to the method described in the Formulation Example 5 to obtain each formulation, and water containing Sindaine (registered trademark) (0.03% by volume) is added thereto to prepare a diluted solution containing a prescribed concentration of each test compound.
Cucumber (Cucumis sativus) seedlings (on the developmental stage of the second true leaf) are planted in a container and approximately 30 cotton aphids (Aphis gossypii) (all stages of life) are released onto the cucumber seedlings. After 1 day, each of said diluted solutions is sprayed into the seedlings in a ratio of 10 mL/seedling. After additional 5 days, the number of the surviving insects is examined and the controlling value is calculated by the following equation. Controlling value (%)={1−(Cb×Tai)/(Cai×Tb)}×100 wherein the symbols in the equation represent the following meanings.
(§3) Cb: Number of the test insects in non-treated area;
Cai: Number of the surviving insects at the time of the investigation in non-treated area; Tb: Number of the test insects in treated area;
(§4) Tai: Number of the surviving insects at the time of the investigation in treated area; […]

[2] = system: cotton aphids (Aphis gossypii); test: Test method 2: diluted solution irrigated into plant foot of cucumber seedlings, cotton aphids released after 7 days; settings: 1000 ppm, irrigation into plant foot 5 mL/seedling, counted after additional 6 days, 25° C.
Procedure: as §1
Each test compound is formulated according to the method described in the Formulation Example 5 to obtain each formulation, and water is added thereto to prepare a diluted solution containing a prescribed concentration of each test compound.
Cucumber seedlings (on the developmental stage of the second true leaf) are planted in a container, and each of said diluted solutions is irrigated into the plant foot in a ratio of 5 mL/seedlings. After 7 days, approximately 30 cotton aphids (Aphis gossypii) (all stages of life) are released onto the surfaces of leaves of the cucumber seedlings. After additional 6 days, the number of the surviving insects is examined and the controlling value is calculated by the following equation. Controlling value (%)={1−(Cb×Tai)/(Cai×Tb)}×100 wherein the symbols in the equation represent the following meanings.
as §3
Cai: Number of the surviving insects at the time of the investigation in non-treated area;
Tb: Number of the test insects in treated area;
as §4

[3] = system: cotton worm (Spodoptera litura); test: Test method 3: sprayed cabbage seedlings, 3rd instar larvae of cotton worm; settings: 500 ppm, spray 20 mL/seedling on cabbage, after 5 days, 25° C.
Procedure: as §1, §2
(§5) Cabbage (Brassicae oleracea) seedlings (on the developmental stage of the second to third true leaf) are planted in a container, and each of said diluted solutions is sprayed into the seedlings in a ratio of 20 mL/seedlings. Thereafter, the stem and leaf of the seedlings are cut out, and placed into a container lined with a filter paper. Five (5) the 3rd instar larvae of cotton worm (Spodoptera litura) are released into the container. After 5 days, the number of the surviving insects is counted, and the mortality of insects is calculated by the following equation. Mortality (%)=(1−Number of surviving insects/5)×100

[4] = system: diamondback moth (Plutella xylostella); test: Test method 4: sprayed cabbage seedlings, 3rd instar larvae of diamondback moth; settings: 500 ppm, spray 20 mL/seedling on cabbage, after 5 days, 25° C.
Procedure: as §1, §2
as §5, with “Cabbage” for “Cabbage (Brassicae oleracea)”, “diamondback moth (Plutella xylostella)” for “cotton worm (Spodoptera litura)”

[5] = system: western corn rootworm (Diabrotica virgifera virgifera); test: Test method 5: corn seedlings immersed in diluted solution, 2nd instar larvae of western corn rootworm; settings: 500 ppm, corn seedlings immersed 30 seconds, after 5 days, 25° C.
Procedure: as §1
Each test compound is dissolved into a mixed solution (50 μL) of polyoxyethylene sorbitan mono-cocoate and acetone (at a volume ratio of polyoxyethylene sorbitan mono-cocoate:acetone=5:95) per 1 mg of the test compound. Water containing Sindaine (registered trademark) (0.03% by volume) is added thereto to prepare a diluted solution containing a prescribed concentration of each test compound.
Young seedlings of corns (Zea mays) are immersed into each of said diluted solutions for 30 seconds. Thereafter, two of said seedlings are placed into a petri dish (diameter: 90 mm), and 10 the 2nd instar larvae of western corn rootworm (Diabrotica virgifera virgifera) are released into the dish. After 5 days, the number of the dead insects is counted, and the mortality of insects is calculated by the following equation. Mortality (%)=(Number of dead insects/10)×100

CCS(=O)(=O)c1c(-n2ccn3nc(C(F)(F)F)cc3c2=O)nc2ccc(C(F)(F)F)cn12 [compound 2]
controlling value [1]: ≥ 90% | controlling value [2]: ≥ 90% | mortality [3]: ≥ 80% | mortality [4]: ≥ 80% | mortality [5]: ≥ 80%

— US12144350B2, “Heterocyclic compound and harmful arthropod control composition containing same” (SUMITOMO CHEMICAL COMPANY, LIMITED, priority 2019, dated 2024)
